# How the values were obtained:
# Assay type in all cases: toxicity, cell-based
# HEK-293T = experiment: Incucyte cell viability with HEK293T; conditions: human, 10 µM, compound concentration 10 uM
# Fibroblast = experiment: Incucyte cell viability with human fibroblast; conditions: 10 µM, compound concentration 10 uM
# U2OS = experiment: Incucyte cell viability with U2OS; conditions: human, 10 µM, compound concentration 10 uM
# Also: unitless GR value; below 1 slowed growth and below 0 cell loss.
Compound,"Growth Rate (HEK-293T; 0 h, replicate number 1)","Growth Rate (Fibroblast; 0 h, replicate number 1)","Growth Rate (Fibroblast; 6 h, replicate number 1)","Growth Rate (Fibroblast; 12 h, replicate number 2)","Growth Rate (Fibroblast; 18 h, replicate number 1)","Growth Rate (Fibroblast; 24 h, replicate number 2)","Growth Rate (U2OS; 0 h, replicate number 1)","Growth Rate (U2OS; 0 h, replicate number 2)","Growth Rate (U2OS; 24 h, replicate number 1)","Growth Rate (HEK-293T; 0 h, replicate number 2)","Growth Rate (HEK-293T; 12 h, replicate number 1)","Growth Rate (HEK-293T; 12 h, replicate number 2)","Growth Rate (HEK-293T; 18 h, replicate number 1)","Growth Rate (HEK-293T; 18 h, replicate number 2)","Growth Rate (HEK-293T; 24 h, replicate number 1)","Growth Rate (HEK-293T; 24 h, replicate number 2)","Growth Rate (Fibroblast; 6 h, replicate number 2)","Growth Rate (Fibroblast; 18 h, replicate number 2)","Growth Rate (U2OS; 24 h, replicate number 2)","Growth Rate (U2OS; 18 h, replicate number 1)",also measured
CCOC(=O)c1c(/C(C#N)=C\N)c2ccc(Cl)c(Cl)c2n1C,0.22,0.55,-0.96,0.88,0.7,0.9,-0.98,0.82,0.94,–,–,–,–,–,–,–,–,–,–,–,"Growth Rate (Fibroblast; 24 h, replicate number 1): 0.75; Growth Rate (U2OS; 6 h, replicate number 1): 0.92; Growth Rate (U2OS; 12 h, replicate number 1): 0.97"
CN[C@@H](C)C(=O)N[C@H]1CCCC[C@H]2CC[C@@H](C(=O)N[C@@H](c3ccccc3)c3cn(CCCCc4ccc(CCCCn5cc([C@@H](NC(=O)[C@@H]6CC[C@@H]7CCCC[C@H](NC(=O)[C@H](C)NC)C(=O)N76)c6ccccc6)nn5)cc4)nn3)N2C1=O,0.64,0.3,–,0.88,0.61,0.66,-0.95,-0.89,–,0.24,0.83,0.77,0.72,0.74,0.65,0.84,0.06,0.55,–,–,"Growth Rate (HEK-293T; 6 h, replicate number 2): 0.99"
COc1cc(/C=C(\C#N)C(=O)Nc2nnc(C(F)(F)F)s2)ccc1OCc1ccc(C(F)(F)F)cc1C(F)(F)F,0.87,-0.12,–,0.17,0.9,0.86,0.49,–,0.97,–,0.72,0.82,0.91,–,1,0.98,–,0.84,0.87,–,"Growth Rate (HEK-293T; 6 h, replicate number 1): 0.32; Growth Rate (HEK-293T; 6 h, replicate number 2): 0.92; Growth Rate (Fibroblast; 12 h, replicate number 1): -0.69; Growth Rate (Fibroblast; 24 h, replicate number 1): 0.17; Growth Rate (U2OS; 6 h, replicate number 1): 0.84; Growth Rate (U2OS; 6 h, replicate number 2): 0.63; Growth Rate (U2OS; 12 h, replicate number 2): 0.81; Growth Rate (U2OS; 18 h, replicate number 2): 0.85"
Cc1[nH]nc2ccc(-c3cncc(OCC(N)Cc4c[nH]c5ccccc45)c3)cc12 (configuration not stated),-0.53,–,-1,–,–,0.21,–,0.54,0.09,-0.56,–,0.41,0.65,0.08,0.19,-0.02,–,0.88,0.13,0.51,–
Nc1ccc(-c2cnc(N)c(-c3ccc(Cl)cc3)c2)cn1,-0.26,0.71,-1,–,–,–,-0.24,-0.83,–,-0.3,–,–,–,0.92,–,0.78,–,–,–,–,"Growth Rate (Fibroblast; 0 h, replicate number 2): -0.5"
CCc1cc2c(cc1-c1cccc(S(=O)(=O)F)c1)C(C)(C)c1[nH]c3cc(C#N)ccc3c1C2=O,0.33,-0.25,–,–,-0.55,0.9,-1,-0.59,0.66,0.37,0.48,0.78,0.83,0.95,0.69,–,0.75,0.89,0.77,0.76,"Growth Rate (HEK-293T; 6 h, replicate number 1): -0.16; Growth Rate (HEK-293T; 6 h, replicate number 2): -0.05; Growth Rate (Fibroblast; 12 h, replicate number 1): -0.96; Growth Rate (Fibroblast; 24 h, replicate number 1): 0.61; Growth Rate (U2OS; 6 h, replicate number 1): 0.58; Growth Rate (U2OS; 12 h, replicate number 1): 0.52; Growth Rate (U2OS; 12 h, replicate number 2): 0.66"
CCCOc1cnc(CN/C=C2\C(=O)NC(=O)c3ccc(I)cc32)cc1O,0.51,0.29,-0.88,-0.06,–,0.16,–,-1,0.07,–,-0.75,-0.74,-0.63,-0.6,-0.58,-0.47,-0.38,0.1,0,0.45,"Growth Rate (HEK-293T; 6 h, replicate number 1): -0.81; Growth Rate (HEK-293T; 6 h, replicate number 2): -0.9; Growth Rate (Fibroblast; 12 h, replicate number 1): -0.79; Growth Rate (Fibroblast; 24 h, replicate number 1): 0.11; Growth Rate (U2OS; 12 h, replicate number 1): 0.89; Growth Rate (U2OS; 12 h, replicate number 2): 0.75; Growth Rate (U2OS; 18 h, replicate number 2): 0.38"
O=C(O)C(F)(F)F.O=C1NC(=O)/C(=C/c2c[nH]c(=O)c(-c3ccc(N4CCNCC4)nc3)c2)S1,0.51,0.18,–,0.62,-0.06,0.73,–,-0.63,0.96,0.87,–,0.93,–,0.96,–,0.95,-0.44,0.69,–,0.97,"Growth Rate (Fibroblast; 12 h, replicate number 1): -0.78; Growth Rate (Fibroblast; 24 h, replicate number 1): 0.69; Growth Rate (U2OS; 6 h, replicate number 1): 0.54; Growth Rate (U2OS; 12 h, replicate number 1): 0.92"
Nc1nccc(-c2ccn3c(N)nccc23)n1,-0.56,0.88,0.9,–,0.49,–,–,-0.76,–,-0.48,–,–,–,–,0.97,–,–,–,–,0.84,"Growth Rate (Fibroblast; 12 h, replicate number 1): -0.17; Growth Rate (U2OS; 12 h, replicate number 1): 0.76"
CCN1C(=CC(C)=O)Sc2ccc(OC)cc21,0.95,0.98,–,–,–,–,–,–,–,0.69,0.47,0.28,0.25,0.43,0.2,0.46,0.95,–,–,–,"Growth Rate (HEK-293T; 6 h, replicate number 1): 0.07; Growth Rate (HEK-293T; 6 h, replicate number 2): 0.47; Growth Rate (Fibroblast; 0 h, replicate number 2): 0.16; Growth Rate (U2OS; 12 h, replicate number 2): 0.9"
O=C1NC(=Nc2c(Cl)cccc2Cl)S/C1=C\c1ccc2nccnc2c1,0.08,0.49,–,0.96,–,–,0.01,–,0.8,0.44,0.48,0.26,0.44,0.35,0.52,0.45,0.92,–,0.75,0.81,"Growth Rate (HEK-293T; 6 h, replicate number 1): 0.02; Growth Rate (U2OS; 6 h, replicate number 1): 0.4; Growth Rate (U2OS; 6 h, replicate number 2): 0.31; Growth Rate (U2OS; 12 h, replicate number 2): 0.38; Growth Rate (U2OS; 18 h, replicate number 2): 0.64"
COC[C@@H](CC(C)C)NC1=N/C(=C\c2ccc3ncsc3c2)C(=O)N1C,0.16,–,-0.97,0.07,0.63,0.51,0.04,–,0.37,0.12,-0.18,0.3,0.35,0.69,0.68,0.6,0.03,0.3,0.28,0.43,"Growth Rate (HEK-293T; 6 h, replicate number 1): 0.37; Growth Rate (HEK-293T; 6 h, replicate number 2): 0.4; Growth Rate (U2OS; 12 h, replicate number 1): 0.73; Growth Rate (U2OS; 12 h, replicate number 2): 0.64; Growth Rate (U2OS; 18 h, replicate number 2): 0.37"
O=C(Nc1cc(-c2cn[nH]c2)ccc1N1CCOCC1)c1ccc(-c2ccc3ncccc3c2)o1,0.85,-0.23,-1,0.42,–,0.77,–,-0.65,0.44,0.49,-0.07,-0.19,0.02,0.04,-0.01,0.06,–,0.64,0.4,0.39,"Growth Rate (HEK-293T; 6 h, replicate number 1): -0.44; Growth Rate (HEK-293T; 6 h, replicate number 2): -0.29; Growth Rate (U2OS; 12 h, replicate number 2): 0.75"
O=C1NC(NC23CC4CC(CC(C4)C2)C3)=N/C1=C\c1ccc2ncsc2c1,-0.45,0.57,-1,–,–,–,0.86,-0.34,0.82,-0.26,0.28,0.34,0.06,0.09,0.08,0.05,–,–,0.52,–,"Growth Rate (Fibroblast; 0 h, replicate number 2): 0.76; Growth Rate (U2OS; 18 h, replicate number 2): 0.87"
CN(C)Cc1cccc(NC(=C2C(=O)Nc3cc(C(N)=O)ccc32)c2ccccc2)c1,0.9,-0.09,–,0.87,-0.83,–,–,-0.78,–,-0.24,–,–,–,–,–,–,0.24,–,–,–,"Growth Rate (Fibroblast; 12 h, replicate number 1): -0.97; Growth Rate (Fibroblast; 24 h, replicate number 1): 0.13"
